Data: ChEMBL document CHEMBL4665869, “New thiazolopyrimidine as anticancer agents: Synthesis, biological evaluation, DNA binding, molecular modeling and ADMET study” (Bioorg Med Chem Lett, 2020)

Tests used:
[1] = tested on: A549; assay: Growth inhibition of human A549 cells at 10 uM relative to control; assay type: functional; details: read-out: GI
[2] = tested on: DU-145; assay: Growth inhibition of human DU-145 cells at 10 uM relative to control; assay type: functional; details: read-out: GI
[3] = biological target: DNA; assay: Displacement of methyl green from DNA (unknown origin) assessed as DNA intercalation after 24 hrs by colorimetric assay; assay type: nucleic-acid assay
[4] = tested on: CAKI-1; assay: Growth inhibition of human CAKI-1 cells at 10 uM relative to control; assay type: functional; details: read-out: GI
[5] = tested on: SK-OV-3; assay: Growth inhibition of human SK-OV-3 cells at 10 uM relative to control; assay type: functional; details: read-out: GI
[6] = tested on: SW-620; assay: Growth inhibition of human SW-620 cells at 10 uM relative to control; assay type: functional; details: read-out: GI
[7] = tested on: ACHN; assay: Growth inhibition of human ACHN cells at 10 uM relative to control; assay type: functional; details: read-out: GI
[8] = tested on: MDA-MB-468; assay: Growth inhibition of human MDA-MB-468 cells at 10 uM relative to control; assay type: functional; details: read-out: GI
[9] = tested on: UACC-257; assay: Growth inhibition of human UACC-257 cells at 10 uM relative to control; assay type: functional; details: read-out: GI
[10] = tested on: MDA-MB-231; assay: Growth inhibition of human MDA-MB-231 cells at 10 uM relative to control; assay type: functional; details: read-out: GI
[11] = tested on: HOP-62; assay: Growth inhibition of human HOP-62 cells at 10 uM relative to control; assay type: functional; details: read-out: GI
[12] = tested on: NCI-H23; assay: Growth inhibition of human NCI-H23 cells at 10 uM relative to control; assay type: functional; details: read-out: GI
[13] = tested on: MDA-MB-435; assay: Growth inhibition of human MDA-MB-435 cells at 10 uM relative to control; assay type: functional; details: read-out: GI
[14] = tested on: RXF 393; assay: Growth inhibition of human RXF 393 cells at 10 uM relative to control; assay type: functional; details: read-out: GI
[15] = tested on: NCI-H322M; assay: Growth inhibition of human NCI-H322M cells at 10 uM relative to control; assay type: functional; details: read-out: GI
[16] = tested on: SN12C; assay: Growth inhibition of human SN12C cells at 10 uM relative to control; assay type: functional; details: read-out: GI
[17] = tested on: A498; assay: Growth inhibition of human A498 cells at 10 uM relative to control; assay type: functional; details: read-out: GI
[18] = tested on: SK-MEL-2; assay: Growth inhibition of human SK-MEL-2 cells at 10 uM relative to control; assay type: functional; details: read-out: GI
[19] = tested on: MOLT-4; assay: Growth inhibition of human MOLT-4 cells at 10 uM relative to control; assay type: functional; details: read-out: GI
[20] = tested on: SR; assay: Growth inhibition of human SR cells at 10 uM relative to control; assay type: functional; details: read-out: GI
[21] = tested on: SK-MEL-5; assay: Growth inhibition of human SK-MEL-5 cells at 10 uM relative to control; assay type: functional; details: read-out: GI
[22] = tested on: HCT-116; assay: Growth inhibition of human HCT-116 cells at 10 uM relative to control; assay type: functional; details: read-out: GI
[23] = tested on: OVCAR-8; assay: Growth inhibition of human OVCAR-8 cells at 10 uM relative to control; assay type: functional; details: read-out: GI
[24] = tested on: HT-29; assay: Growth inhibition of human HT-29 cells at 10 uM relative to control; assay type: functional; details: read-out: GI
[25] = tested on: NCI-H460; assay: Growth inhibition of human NCI-H460 cells at 10 uM relative to control; assay type: functional; details: read-out: GI
[26] = tested on: COLO 205; assay: Growth inhibition of human COLO 205 cells at 10 uM relative to control; assay type: functional; details: read-out: GI
[27] = tested on: HCC 2998; assay: Growth inhibition of human HCC 2998 cells at 10 uM relative to control; assay type: functional; details: read-out: GI
[28] = tested on: HCT-15; assay: Growth inhibition of human HCT-15 cells at 10 uM relative to control; assay type: functional; details: read-out: GI
[29] = tested on: PC-3; assay: Growth inhibition of human PC-3 cells at 10 uM relative to control; assay type: functional; details: read-out: GI
[30] = tested on: SNB-19; assay: Growth inhibition of human SNB-19 cells at 10 uM relative to control; assay type: functional; details: read-out: GI
[31] = tested on: IGROV-1; assay: Growth inhibition of human IGROV-1 cells at 10 uM relative to control; assay type: functional; details: read-out: GI
[32] = tested on: SK-MEL-28; assay: Growth inhibition of human SK-MEL-28 cells at 10 uM relative to control; assay type: functional; details: read-out: GI
[33] = tested on: BT-549; assay: Growth inhibition of human BT-549 cells at 10 uM relative to control; assay type: functional; details: read-out: GI
[34] = tested on: LOX IMVI; assay: Growth inhibition of human LOX IMVI cells at 10 uM relative to control; assay type: functional; details: read-out: GI
[35] = tested on: Malme-3M; assay: Growth inhibition of human Malme-3M cells at 10 uM relative to control; assay type: functional; details: read-out: GI
[36] = tested on: SF-268; assay: Growth inhibition of human SF-268 cells at 10 uM relative to control; assay type: functional; details: read-out: GI
[37] = tested on: NCI/ADR-RES; assay: Growth inhibition of human NCI/ADR-RES cells at 10 uM relative to control; assay type: functional; details: read-out: GI
[38] = tested on: UACC-62; assay: Growth inhibition of human UACC-62 cells at 10 uM relative to control; assay type: functional; details: read-out: GI
[39] = tested on: NCI-H226; assay: Growth inhibition of human NCI-H226 cells at 10 uM relative to control; assay type: functional; details: read-out: GI
[40] = tested on: U-251; assay: Growth inhibition of human U-251 cells at 10 uM relative to control; assay type: functional; details: read-out: GI
[41] = tested on: MCF7; assay: Growth inhibition of human MCF7 cells at 10 uM relative to control; assay type: functional; details: read-out: GI
[42] = tested on: 786-0; assay: Growth inhibition of human 786-0 cells at 10 uM relative to control; assay type: functional; details: read-out: GI
[43] = tested on: T47D; assay: Growth inhibition of human T47D cells at 10 uM relative to control; assay type: functional; details: read-out: GI
[44] = tested on: OVCAR-5; assay: Growth inhibition of human OVCAR-5 cells at 10 uM relative to control; assay type: functional; details: read-out: GI
[45] = tested on: SF-539; assay: Growth inhibition of human SF-539 cells at 10 uM relative to control; assay type: functional; details: read-out: GI
[46] = tested on: SF-295; assay: Growth inhibition of human SF-295 cells at 10 uM relative to control; assay type: functional; details: read-out: GI
[47] = tested on: OVCAR-4; assay: Growth inhibition of human OVCAR-4 cells at 10 uM relative to control; assay type: functional; details: read-out: GI
[48] = tested on: K562; assay: Growth inhibition of human K562 cells at 10 uM relative to control; assay type: functional; details: read-out: GI
[49] = tested on: CCRF-CEM; assay: Growth inhibition of human CCRF-CEM cells at 10 uM relative to control; assay type: functional; details: read-out: GI
[50] = tested on: NCI-H522; assay: Growth inhibition of human NCI-H522 cells at 10 uM relative to control; assay type: functional; details: read-out: GI
[51] = tested on: M14; assay: Growth inhibition of human M14 cells at 10 uM relative to control; assay type: functional; details: read-out: GI
[52] = tested on: HL-60(TB); assay: Growth inhibition of human HL-60(TB) cells at 10 uM relative to control; assay type: functional; details: read-out: GI
[53] = tested on: HOP-92; assay: Growth inhibition of human HOP-92 cells at 10 uM relative to control; assay type: functional; details: read-out: GI
[54] = tested on: KM12; assay: Growth inhibition of human KM12 cells at 10 uM relative to control; assay type: functional; details: read-out: GI
[55] = tested on: RPMI-8226; assay: Growth inhibition of human RPMI-8226 cells at 10 uM relative to control; assay type: functional; details: read-out: GI
[56] = tested on: TK-10; assay: Growth inhibition of human TK-10 cells at 10 uM relative to control; assay type: functional; details: read-out: GI
[57] = tested on: SNB-75; assay: Growth inhibition of human SNB-75 cells at 10 uM relative to control; assay type: functional; details: read-out: GI
[58] = tested on: UO-31; assay: Growth inhibition of human UO-31 cells at 10 uM relative to control; assay type: functional; details: read-out: GI
[59] = tested on: Hs-578T; assay: Growth inhibition of human Hs-578T cells at 10 uM relative to control; assay type: functional; details: read-out: GI

CC1=CN2C(=NC(/C=C/c3ccc(Cl)cc3)=CC2c2ccc(Cl)cc2)S1 (centres undefined)
12.3%: inhibition of growth at 10 µM [17]
45.18 µg/mL: IC50 [3]
17.3%: inhibition of growth at 10 µM [57]
< 10%: inhibition of growth at 10 µM [1] | inhibition of growth at 10 µM [2] | inhibition of growth at 10 µM [4] | inhibition of growth at 10 µM [5] | inhibition of growth at 10 µM [6] | inhibition of growth at 10 µM [7] | inhibition of growth at 10 µM [8] | inhibition of growth at 10 µM [9] | inhibition of growth at 10 µM [10] | inhibition of growth at 10 µM [11] | inhibition of growth at 10 µM [12] | inhibition of growth at 10 µM [13] | inhibition of growth at 10 µM [14] | inhibition of growth at 10 µM [15] | inhibition of growth at 10 µM [16] | inhibition of growth at 10 µM [18] | inhibition of growth at 10 µM [19] | inhibition of growth at 10 µM [20] | inhibition of growth at 10 µM [21] | inhibition of growth at 10 µM [22] | inhibition of growth at 10 µM [23] | inhibition of growth at 10 µM [24] | inhibition of growth at 10 µM [25] | inhibition of growth at 10 µM [26] | inhibition of growth at 10 µM [27] | inhibition of growth at 10 µM [28] | inhibition of growth at 10 µM [29] | inhibition of growth at 10 µM [30] | inhibition of growth at 10 µM [31] | inhibition of growth at 10 µM [32] | inhibition of growth at 10 µM [33] | inhibition of growth at 10 µM [34] | inhibition of growth at 10 µM [35] | inhibition of growth at 10 µM [36] | inhibition of growth at 10 µM [37] | inhibition of growth at 10 µM [38] | inhibition of growth at 10 µM [39] | inhibition of growth at 10 µM [40] | inhibition of growth at 10 µM [41] | inhibition of growth at 10 µM [42] | inhibition of growth at 10 µM [43] | inhibition of growth at 10 µM [44] | inhibition of growth at 10 µM [45] | inhibition of growth at 10 µM [46] | inhibition of growth at 10 µM [47] | inhibition of growth at 10 µM [48] | inhibition of growth at 10 µM [49] | inhibition of growth at 10 µM [50] | inhibition of growth at 10 µM [51] | inhibition of growth at 10 µM [52] | inhibition of growth at 10 µM [53] | inhibition of growth at 10 µM [54] | inhibition of growth at 10 µM [55] | inhibition of growth at 10 µM [56] | inhibition of growth at 10 µM [58] | inhibition of growth at 10 µM [59]
